Results as given in patent US5447957A, “Anti-inflammatory compounds” (SmithKline Beecham Corp., priority 1994, dated 1995).

System: CoA-IT
Assay: Assay (b): CoA-IT activity in U937 cell microsomes
Format: biochemical, human
Settings: generally at 50 μM or less
Excerpt: Assay (b): CoA-IT Activity
The following is a method to measure CoA-IT activity and the effects of compounds on CoA-IT activity. The assay is based upon mixing cellular material containing CoA-IT activity with a stable lyso phospholipid such as […] and measuring the production of phospholipid product such as […] occurring in the absence of added CoA or CoA-fatty acids.
Any inflammatory cell that contains high levels of CoA-IT activity can be used, such as neutrophils, macrophages or cell lines such as U937 cells. […] Cells were grown without differentiation (basal state) by any agent, such as dimethyl sulfoxide. As used herein, "inflammatory cells" include, but are not limited to neutrophils, macrophages, monocytes, lymphocytes, eosinophils, basophils, and mast cells.
Microsomes were prepared using standard techniques. In this case, cells were washed with a buffer of 250 mM sucrose, 10 mM Tris, 1 mM EGTA, 1 mM MgCl2, pH 7.4 and ruptured by N2 cavitation (750 psi, 10 minutes). The ruptured cells were centrifuged 1000× g, 5 minutes. The resulting supernatant was centrifuged at 20,000×g,~20 minutes. Microsomes were prepared from this supernatant by centrifugation at 100,000× g, 60 minutes. The resulting pellet was washed once with assay buffer (150 mM NaCl, 10 mM Na2 KPO4, 1 mM EGTA, pH 7.4), recentrifuged and the pellet resuspended in assay buffer (4-20 mg protein/ml) and was stored at -80° C. until assayed.
CoA-IT activity was measured in 1.5 ml centrifuge tubes in a total volume of 100 ul. Microsomes were diluted in assay buffer to the desired protein concentration (6-20 ug/tube). The reaction was initiated by addition of [3H] 1-alkyl-2-lyso-sn-glycero-3-phosphocholine (GPC)(~0.1 uCi/tube) and 1 μM final cold 1-alkyl-2-lyso-GPC in assay buffer with 0.25 mg/ml fatty acid-poor bovine serumalbumin (BSA) (Calbiochem, La Jolla, Calif.). [3H]1-alkyl-2-lyso-GPC, approximately 50 Ci/mmol, was from NEN-Dupont (Boston, Mass.) and cold 1-alkyl-2-lyso-GPC was from Biomol (Plymouth Meeting, Penn.). Microsomes were pretreated with desired agents for the desired time (10 minutes) before the addition of [3H]1-alkyl-2-lyso-GPC. The reaction was run for the desired time (10 minutes) at 37° C. The reaction was stopped and the lipids extracted by addition of 100 ul of chloroform:methanol (1:2, v/v) followed by 100 ul of chloroform and 100 ul of 1M KCI. The samples were vortexed and centrifuged at high speed in a microfuge for 2-3 minutes. An aliquot of the chloroform-extracted materials were separated, usually by TLC in chloroform/methanol/acetic acid/water (50:25:8:4, v/v), visualized by radioscanning (Bioscan) and the product, [3H] 1-alkyl-2-acyl-GPC, was scraped and quantified by liquid scintillation spectroscopy. […] Other methods can be used to separate substrate from product, including but not limited to column chromatography, affinity chromatography and post reaction derivitization.

Compound	inhibition of CoA-IT activity in the microsomal CoA-IT assay
O=C(Nc1cc(C(F)(F)F)cc(C(F)(F)F)c1)Nc1ccccc1Oc1ccccc1C(=O)O [Example 2, 2-[2-[3-[3,5-Bis (trifluoromethyl)phenyl]ureido]phenoxy]benzoic acid]	inhibit CoA-IT activity
O=C(Nc1cc(C(F)(F)F)cc(C(F)(F)F)c1)Nc1cc(C(F)(F)F)ccc1Oc1ccccc1C(=O)O [Example 7, 2-[2-[3-[3,5-Bis(trifluoromethyl)phenyl]ureido]-4-trifluoromethylphenoxy]benzoic acid]	inhibit CoA-IT activity
